{
  "source": "patent US20150204881A1",
  "about": "“Biomarkers For Diagnosis Of Diabetes And Monitoring Of Anti-Diabetic Therapy” (Sumitomo Bakelite Co., Ltd., priority 2012, published 2015)",
  "key": {"db/db mice [1]": {"tested_on": "db/db mice", "experiment": "HbA1c in treated db/db mice", "assay_type": "in vivo, mouse"}, "db/db mice [2]": {"tested_on": "db/db mice", "experiment": "Plasma N-glycan profiling (MALDI-TOF MS) in insulin detemir- vs vehicle-treated db/db mice", "assay_type": "in vivo, mouse", "method": "A 10 μl aliquot of each plasma sample was spiked with internal standard (700 pmol) and analyzed for N-linked glycans using Ezose Sciences' GLYCANMAP methodology. The samples were denatured and then digested with trypsin, followed by heat-inactivation. The mixture was then treated with PNGase F. After enzymatic release of N-glycans, aliquots were subjected to solid-phase processing using BLOTGLYCO beads. Following capture on the beads, the sialic acid residues were methyl esterified. The glycans were simultaneously released from the beads and labeled, and then aliquots of the recovered materials were spotted onto a MALDI target plate. Steps from initial aliquoting to spotting on the MALDI plate were performed using the fully automated SWEETBLOT technology. MALDI-TOF MS analysis was performed on an ultraflex III mass spectrometer (Bruker Daltonics) in the positive-ion, reflector mode. Each sample from the BLOTGLYCO bead processing step was spotted in quadruplicate, and spectra were obtained in an automated manner using the AutoXecute feature in flexControl software (Bruker Daltonics). Proposed glycan structures were assigned based on molecular weight. These methods have been described previously by Nishimura, Furukawa and Miura (Nishimura et al., Angew Chem. Int. Ed. Engl., 44: 91-96 (2004); Furukawa et al., Anal. Chem., 80: 1094-1101 (2008); Miura et al., Chem.-A Eur. J, 13: 4797-4804 (2007)). Alternatively, standard fluorescent HPLC or capillary electrophoresis methods with 2-AA, 2-AB, or APTS labeling can be used to monitor the glycan levels and changes in glycan patterns.\nA further study was undertaken to evaluate the performance of candidate biomarkers discovered using rosiglitazone in mice treated with a diabetes drug having a different mechanism of action. The candidate biomarkers that were identified in Example 1 were evaluated in db/db mice treated with insulin detemir and vehicle.\nPlasma samples were analyzed from ten db/db mice at baseline (0 days) and from 20 db/db mice (ten vehicle and ten insulin detemir-treated) at 7, 14, and 21 days. Sample preparation and analysis followed the protocol described in Example 1.\nConcentrations of individual glycans in insulin detemir- and vehicle-treated db/db mice were compared at each time-point using the Student's t-test. N-glycans which yielded p-values <0.05 in this analysis were considered significant. Time-dependence was also evaluated for each of the candidate biomarkers by comparing each time-point to baseline."}, "[3]": {"conditions": "db/db mice treated with insulin detemir vs vehicle"}, "[4]": {"conditions": "plasma, db/db mice vs vehicle, 7, 14, 21 days"}},
  "data": [
    {"molecule": "CN(CCOc1ccc(CC2SC(=O)NC2=O)cc1)c1ccccn1", "note": "(centres unmarked) [Rosiglitazone]", "values": [
      {"measurement": "Time until HbA1c difference reached p<0.001 significance", "setting": "db/db mice [1]; first rosiglitazone study, db/db mice vs vehicle", "value": 21, "unit": "days"}
    ]},
    {"molecule": "insulin detemir", "values": [
      {"measurement": "Changes in HbA1c", "setting": "db/db mice [1]; insulin-treated db/db mice, compared with rosiglitazone", "value": "more subtle changes"},
      {"measurement": "Changes in Glycan 540020", "setting": "db/db mice [2]; [3]", "value": "no significant changes"},
      {"measurement": "Changes in O-acetylated N-glycans", "setting": "db/db mice [2]; [3]", "value": "no significant changes"},
      {"measurement": "Changes in fucosylated N-glycans", "setting": "db/db mice [2]; [3]", "value": "no significant changes"},
      {"measurement": "High mannose glycans (520000, 620000, 720000, 820000) with insulin detemir treatment", "setting": "db/db mice [2]; db/db mice vs vehicle, significant at Day 7, 14 and 21, lower in magnitude than with rosiglitazone", "value": "lower levels"},
      {"measurement": "Hybrid glycans (430010, 530010, 630010) vs vehicle-treated controls", "setting": "db/db mice [2]; db/db mice, as early as Day 7", "value": "significant decreases"},
      {"measurement": "Direction of Change with Insulin Detemir: High Mannose glycan 520000", "setting": "db/db mice [2]; [4]", "value": "Decreased"},
      {"measurement": "Direction of Change with Insulin Detemir: High Mannose glycan 620000", "setting": "db/db mice [2]; [4]", "value": "Decreased"},
      {"measurement": "Direction of Change with Insulin Detemir: High Mannose glycan 720000", "setting": "db/db mice [2]; [4]", "value": "Decreased"},
      {"measurement": "Direction of Change with Insulin Detemir: High Mannose glycan 820000", "setting": "db/db mice [2]; [4]", "value": "Decreased"},
      {"measurement": "Direction of Change with Insulin Detemir: Hybrid glycan 430010", "setting": "db/db mice [2]; [4]", "value": "Decreased"},
      {"measurement": "Direction of Change with Insulin Detemir: Hybrid glycan 530010", "setting": "db/db mice [2]; [4]", "value": "Decreased"},
      {"measurement": "Direction of Change with Insulin Detemir: Hybrid glycan 630010", "setting": "db/db mice [2]; [4]", "value": "Decreased"}
    ]}
  ]
}
